{"source": "patent US9139502B2", "about": "“Use of an urushiol compound in preparation of pharmaceutical compositions for inhibiting Smad3 phosphorylation” (Southern Hospital, Southern Medical University, priority 2013, dated 2015)", "key": {"[1]": {"test_system": "Smad7", "assay": "Western blot of Smad7 expression in UUO kidneys", "format": "in vivo, rat", "conditions": "UUO rats, GQ-5 40 mg/kg daily i.p. right after UUO, sacrificed day 14", "experimental": "Male Sprague-Dawley rats with body weight 200 to 250 g were randomized into 3 groups (n=6 in each group): (1) sham operated rats; (2) UUO rats; (3) UUO+GQ-5 rats.\nGQ-5 was dissolved in 5% propylene glycol.\n(3) UUO+GQ-5 rats: daily intraperitoneal injection of GQ-5 (40 mg/kg body weight) right after UUO;\nUUO was performed using an established protocol as described. GQ-5 was dissolved in 5% propylene glycol. Rats were administrated with GQ-5 as described before. All the rats were sacrificed 14 days after UUO. Western blot analyses were performed to examine the Smad4, Smad7 expression and p38, PI3K, ERK phosphorylation."}, "[2]": {"target": "interaction of Smad2 with TβRI (Rattus norvegicus, UniProt O70436)", "sequence (O70436 whole entry)": "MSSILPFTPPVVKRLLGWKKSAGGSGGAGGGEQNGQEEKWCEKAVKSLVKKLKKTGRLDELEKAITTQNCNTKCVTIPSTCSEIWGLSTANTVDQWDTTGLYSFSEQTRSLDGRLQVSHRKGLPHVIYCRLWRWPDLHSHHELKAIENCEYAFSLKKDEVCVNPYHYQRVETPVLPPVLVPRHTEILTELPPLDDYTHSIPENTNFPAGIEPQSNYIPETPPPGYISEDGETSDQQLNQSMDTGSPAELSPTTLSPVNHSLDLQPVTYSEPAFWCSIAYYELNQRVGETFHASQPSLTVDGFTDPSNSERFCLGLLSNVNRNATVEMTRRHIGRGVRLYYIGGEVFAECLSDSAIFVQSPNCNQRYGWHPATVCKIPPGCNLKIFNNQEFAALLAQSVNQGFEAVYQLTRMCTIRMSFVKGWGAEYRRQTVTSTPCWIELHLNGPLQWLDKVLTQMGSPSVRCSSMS", "assay": "Immunoprecipitation of Smad2 with TβRI in vitro", "format": "cell-based", "set-up": "endogenous in cells; host or cells: NRK52E", "conditions": "NRK52E cells, GQ-5 2.5 nM pre-treated 1 h, TGF-β1 10 ng/ml 1 h", "experimental": "NRK52E cells were cultured in DMEM-Ham's medium supplemented with 10% fetal bovine serum. The cells reached at approximately 50% confluence were used for in vitro experiments. Cells were serum-starved for 12 h, and randomized into 4 groups: (1) Controls; (2) GQ-5 only; (3) TGF-β1 only; (4) TGF-β1+GQ-5\n(2) GQ-5 only: pre-treated with GQ-5 (2.5 nM) for 1 h, followed with DMEM for 1 h\n(3) TGF-β1 only: pre-treated with DMSO for 1 h, followed with TGF-β1 (10 ng/ml) for 1 h\n(4) TGF-β1+GQ-5: pre-treated with GQ-5 (2.5 nM) for 1 h, followed with TGF-β1 (10 ng/ml) for 1 h\nGQ-5 was dissolved in DMSO. Cells were treated as described. Cell lysates were collected for immunoprecipitation to examine the interaction among TGFβ type I receptor (TβRI), TβRII, Smad3 and Smad2."}}, "data": [{"smiles": "CCCCCC/C=C\\CCCCCCCc1cccc(O)c1O", "note": "[GQ-5, 3-[(Z)-pentadec-8-enyl]catechol]", "values": [{"measurement": "expression of Smad7", "setting": "[1]", "value": "did not affect"}, {"measurement": "interaction of Smad2 with TβRI", "setting": "[2]", "value": "did not affect"}]}]}
